Laboratory results as given in patent publication US20260167656A1, “PHOSPHORAMIDATE COMPOUNDS AND USES THEREOF” (ALLORION THERAPEUTICS INC, priority 2022, published 2026).

Key:
[1] = system: non-small cell lung cancer cell line H460; experiment: In vitro human cancer cell line cytotoxicity (proliferation) assay in H460, CellTiter-Glo, 72 hours; assay type: cell-based; conditions: H460 cells, DMSO condition (no AKR1C3 inhibitor), read-out: CTG H460: Avg IC50 (nM) [Assay Condition: DMSO]
Outline: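 H460 cells were seeded at 3×10^3 per well and grown 24 h at 37 °C, 5% CO2 before compound addition from 10 mM DMSO stocks. After 72 h further incubation, viability was measured by CellTiter-Glo, and IC50 values in nM were derived from the proliferation data.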

[2] = system: non-small cell lung cancer cell line H460; experiment: H460 proliferation assay in the presence of 3 uM ASP9521 (AKR1C3 specific inhibitor); assay type: cell-based, human; conditions: H460 cells, CellTiter-Glo, 72 hours, in the presence of 3 uM ASP9521 added 4 hours prior to compounds; read-out: CTG H460: Avg IC50 (nM) [Assay Condition: ASP9521]
Outline: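 H460 cells pre-incubated 24 h, then exposed to compounds for 72 h at 37 °C, 5% CO2. Viability read by CellTiter-Glo. ASP9521 (3 uM, AKR1C3 inhibitor) added 4 h before compounds.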

Row | SMILES | IC50 ([1]; Homo sapiens, NCI-H460, 72 h) [nM] | IC50 [2] [nM] | IC50 [1] [nM]
1 | Cn1ccc2cc(Oc3c([N+](=O)[O-])ccc4c3CC[C@@H]4OP(=O)(N3CC3)N3CC3)ccc2c1=O [Example 382] | < 10 | 320 | 
2 | O=[N+]([O-])c1ccc2c(c1Oc1cccc(-c3ccnn3CCO)c1)CC[C@@H]2OP(=O)(N1CC1)N1CC1 [Example 351] | < 10 | 1570 | 
3 | Cn1c(=O)n(C)c2cc(Oc3c([N+](=O)[O-])ccc4c3CCC4OP(=O)(N3CC3)N3CC3)ccc21 (stereo not drawn) [Example 93] |  | 878 | ≥ 100
4 | C[C@@H]1CN1P(=O)(COc1c(F)c(F)c(OCc2ccc([N+](=O)[O-])c(Oc3ccc(C(=O)N(C)C)cc3)c2)c(F)c1F)N1C[C@H]1C (stereo partly drawn) [Example 15] | < 10 | 947 | 
5 | C[C@H]1CN1P(=O)(OCc1c(F)c(F)c(OCc2ccc([N+](=O)[O-])c(Oc3cccc(C(=O)N(C)C)c3)c2)c(F)c1F)N1C[C@@H]1C (stereo partly drawn) [Example 12, 4-((3-(3-(dimethylcarbamoyl)phenoxy)-4-nitrobenzyl)oxy)-2,3,5,6-tetrafluorobenzyl bis((S)-2-methylaziridin-1-yl)phosphinate] | < 10 | 89 | 
6 | O=[N+]([O-])c1ccc2c(c1Oc1ccc(-c3ccc(Cl)cc3)cc1)CC[C@H]2OP(=O)(N1CC1)N1CC1 [Example 270] |  | 5550 | 10 to 50
7 | CN1CCc2ccc(Oc3cc4c(cc3[N+](=O)[O-])CCC4OP(=O)(N3CC3)N3CC3)cc2C1=O (stereo not drawn) [Example 166] | 10 to 50 | 976 | 
8 | O=C(c1cccc(Oc2c([N+](=O)[O-])ccc3c2CCC3OP(=O)(N2CC2)N2CC2)c1)N1C[C@H]2CC[C@@H](C1)O2 (stereo partly drawn) [Example 250] |  | 1220 | < 10
9 | C[C@H]1CN1P(=O)(OCc1ccc([N+](=O)[O-])c(Oc2cccc(C(=O)N(C)C)c2)c1)N1C[C@@H]1C (stereo partly drawn) [Example 207] | < 10 | 217 | 
10 | O=C(c1cccc(Oc2c([N+](=O)[O-])ccc3c2CCC3OP(=O)(N2CC2)N2CC2)c1)N1CCC(F)(F)C1 (stereo not drawn) [Example 101] | < 10 | 1210 | 
11 | O=[N+]([O-])c1ccc2c(c1Oc1cccc(-c3ccc(F)cn3)c1)CCC2OP(=O)(N1CC1)N1CC1 (stereo not drawn) [Example 323] |  | 2690 | < 10
12 | CC(C)c1cc(Oc2c([N+](=O)[O-])ccc3c2CCC3OP(=O)(N2CC2)N2CC2)ccc1F (stereo not drawn) [Example 331] |  | 1050 | < 10
13 | O=[N+]([O-])c1ccc2c(c1Oc1ccc(O)c(-c3ncc(F)cn3)c1)CCC2OP(=O)(N1CC1)N1CC1 (stereo not drawn) [Example 338] |  | 5560 | 10 to 50
14 | O=[N+]([O-])c1ccc2c(c1Oc1cc(F)cc(-c3ncccn3)c1)CC[C@@H]2OP(=O)(N1CC1)N1CC1 [Example 356] | < 10 | 1990 | 
15 | Cc1ccn(-c2cccc(Oc3c([N+](=O)[O-])ccc4c3CC[C@H]4OP(=O)(N3CC3)N3CC3)c2)n1 [Example 430] | < 10 | 4860 | 
16 | O=[N+]([O-])c1cc2oc(COP(=O)(N3CC3)N3CC3)cc2cc1Oc1ccc(-c2ccccc2)cc1 [Example 230, (5-([1,1′-biphenyl]-4-yloxy)-6-nitrobenzofuran-2-yl)methyl di(aziridin-1-yl)phosphinate] | < 10 | 846 | 
17 | O=[N+]([O-])c1ccc2c(c1Oc1cccc(-n3ccc(C4CC4)n3)c1)CCC2OP(=O)(N1CC1)N1CC1 (stereo not drawn) [Example 115] | 10 to 50 | 4730 | 
18 | O=[N+]([O-])c1ccc2c(c1Oc1ccc(-c3ccc(F)cn3)cc1)CCC2OP(=O)(N1CC1)N1CC1 (racemic) [Example 276] |  | 1340 | < 10
19 | O=[N+]([O-])c1ccc2c(c1Oc1ccc(-c3ncccn3)cc1)CCC2OP(=O)(N1CC1)N1CC1 (racemic) [Example 282] |  | 1240 | < 10
20 | C[C@H](OP(=O)(N1CC1)N1CC1)c1cc2cc(Oc3ccc4c(c3)OC(F)(F)O4)c([N+](=O)[O-])cc2o1 [Example 551] | < 10 | 2600 | 
21 | COc1ccc(Oc2c([N+](=O)[O-])ccc3c2CC[C@@H]3OP(=O)(N2CC2)N2CC2)cc1-c1ncc(F)cn1 [Example 293, (S)-4-(3-(5-fluoropyrimidin-2-yl)-4-methoxyphenoxy)-5-nitro-2,3-dihydro-1H-inden-1-yl di(aziridin-1-yl)phosphinate] | < 10 | 1050 | 
22 | O=[N+]([O-])c1ccc2c(c1Oc1ccc(F)c(OC(F)F)c1)CCC2OP(=O)(N1CC1)N1CC1 (stereo not drawn) [Example 477] |  | 627 | < 10
23 | CC(OP(=O)(N1C[C@H]1C)N1C[C@H]1C)c1ccc([N+](=O)[O-])c(Oc2ccc(-c3ccccc3)cc2)c1 (stereo partly drawn) [Example 218] | < 10 | 1370 | 
24 | O=[N+]([O-])c1ccc2c(c1Oc1cncc(OC3CC3)c1)CC[C@@H]2OP(=O)(N1CC1)N1CC1 [Example 471] |  | 3060 | < 10

Row | SMILES | IC50 ([1]; Homo sapiens, NCI-H460, 72 h) [nM] | IC50 [2] [nM] | IC50 [1] [nM]
25 | Cn1cc(Oc2cccc(Oc3c([N+](=O)[O-])ccc4c3CC[C@H]4OP(=O)(N3CC3)N3CC3)c2)cn1 [Example 455] |  | 1660 | < 10
26 | O=[N+]([O-])c1ccc2c(c1Oc1cccc(OC3CCC3)c1)CC[C@@H]2OP(=O)(N1CC1)N1CC1 [Example 463] |  | 478 | < 10
27 | O=C(NC1CC1)c1ccc(Oc2cc3c(cc2[N+](=O)[O-])CCC3OP(=O)(N2CC2)N2CC2)cc1 (single isomer, unassigned) [Example 173] |  | 2980 | < 10
28 | CN(C)C(=O)c1ccc(Oc2cc3c(cc2[N+](=O)[O-])CCC3OP(=O)(N2CC2)N2CC2)cc1 (single isomer, unassigned) [Example 141] |  | 366 | < 10
29 | O=[N+]([O-])c1ccc2c(c1Oc1ccc(-c3ccccc3)cc1)CCC2OP(=O)(N1CC1)N1CC1 (single isomer, unassigned) [Example 20] |  | 1190 | < 10
30 | O=[N+]([O-])c1ccc2c(c1Oc1cccc(C3CC3)c1)CCC2OP(=O)(N1CC1)N1CC1 (stereo not drawn) [Example 317] |  | 1010 | < 10
31 | C[C@@H](OP(=O)(N1CC1)N1CC1)c1cc2cc(Oc3cccc(C4CC4)c3)c([N+](=O)[O-])cc2o1 [Example 561] |  | 4230 | 10 to 50
32 | O=[N+]([O-])c1cc2oc(COP(=O)(N3CC3)N3CC3)cc2cc1Oc1cccc(OC(F)(F)F)c1 [Example 542] |  | 963 | < 10
33 | C[C@@H](OP(=O)(N1CC1)N1CC1)c1cc2cc(Oc3cccc(C(=O)N(C)C)c3)c([N+](=O)[O-])cc2o1 [Example 566] |  | 6380 | 10 to 50
34 | O=[N+]([O-])c1ccc2c(c1Oc1cccc(-c3nncs3)c1)CC[C@H]2OP(=O)(N1CC1)N1CC1 [Example 352] | < 10 | 268 | 
35 | C[C@H]1CN1P(=O)(OCc1c(F)c(F)c(OCc2ccc([N+](=O)[O-])c(Oc3ccc(C(=O)N(C)C)cc3)c2)c(F)c1F)N1C[C@@H]1C (stereo partly drawn) [Example 14] | < 10 | 553 | 
36 | O=[N+]([O-])c1cc2oc(COP(=O)(N3CC3)N3CC3)cc2cc1Oc1ccc(-c2cccnc2)cc1 [Example 540] | < 10 | 1830 | 
37 | Cn1ccc2cc(Oc3c([N+](=O)[O-])ccc4c3CCC4OP(=O)(N3CC3)N3CC3)ccc2c1=O (stereo not drawn) [Example 381] | < 10 | 312 | 
38 | CN(C)C(=O)c1cccc(Oc2c([N+](=O)[O-])ccc3c2CCC3OP(=O)(N2CC2)N2CC2)c1 (single isomer, unassigned) [Example 33] |  | 476 | < 10
39 | O=C(c1cccc(Oc2c([N+](=O)[O-])ccc3c2CCC3OP(=O)(N2CC2)N2CC2)c1)N1CCC(F)(F)C1 (stereo not drawn) [Example 102] |  | 919 | < 10
40 | O=[N+]([O-])c1ccc2c(c1Oc1cc(O)cc(OCC3CC3)c1)CC[C@@H]2OP(=O)(N1CC1)N1CC1 [Example 446, (S)-4-(3-(cyclopropylmethoxy)-5-hydroxyphenoxy)-5-nitro-2,3-dihydro-1H-inden-1-yl di(aziridin-1-yl)phosphinate] | < 10 | 1210 | 
41 | Cc1nc2cc(Oc3c([N+](=O)[O-])ccc4c3CC[C@H]4OP(=O)(N3CC3)N3CC3)ccc2n1C [Example 392] | < 10 | 785 | 
42 | CN1Cc2ccc(Oc3c([N+](=O)[O-])ccc4c3CCC4OP(=O)(N3CC3)N3CC3)cc2C1=O (stereo not drawn) [Example 23] | < 10 | 75.9 | 
43 | O=[N+]([O-])c1ccc2c(c1Oc1cccc(C(F)(F)F)c1)CCC2OP(=O)(N1CC1)N1CC1 (stereo not drawn) [Example 123] | < 10 | 572 | 
44 | Cn1cc(-c2ccc(Oc3cc4c(cc3[N+](=O)[O-])CCC4OP(=O)(N3CC3)N3CC3)cc2)ccc1=O (stereo not drawn) [Example 178] | ≥ 100 | 1630 | 
45 | O=[N+]([O-])c1ccc2c(c1Oc1cccc(-c3ccccc3)c1)CCC2OP(=O)(N1CC1)N1CC1 (single isomer, unassigned) [Example 30] | < 10 | 1510 | 
46 | Cc1ccn(-c2cc(Oc3c([N+](=O)[O-])ccc4c3CC[C@@H]4OP(=O)(N3CC3)N3CC3)ccc2F)n1 [Example 439] | < 10 | 2090 | 
47 | O=[N+]([O-])c1ccc2c(c1Oc1ccc(F)c(-c3ncc(F)cn3)c1)CCC2OP(=O)(N1CC1)N1CC1 (stereo not drawn) [Example 329] |  | 2440 | < 10
48 | O=[N+]([O-])c1ccc2c(c1Oc1ccc(-n3cccn3)cc1)CCC2OP(=O)(N1CC1)N1CC1 (stereo not drawn) [Example 424] |  | 779 | < 10
